The text below walks through data of DBAASP.

Holding throughout (experiment): ≥ marks a high value that may be exact or a test limit, other limits are often not marked, values filed in µg/mL are converted to µM
The test system of experiment [1] is Escherichia coli KCTC 1682.
Experiment [2] concerns Salmonella typhimurium KCTC 1926.
Experiment [3] concerns Candida albicans TIMM 1768.
The test system of experiment [4] is Streptococcus pyogenes KCTC 3096.
Experiment [5] deals with Staphylococcus aureus KCTC 1621.
Experiment [6] has as its system Bacillus subtilis KCTC 1918.
Experiment [7] deals with Aspergillus fumigatus KCTC 4165.
Experiment [8] concerns Pseudomonas aeruginosa KCTC 1637.
Experiment [9] relates to Candida albicans KCTC 7965.
For experiment [10], the system named is Staphylococcus aureus KCTC 1928.
The test system of experiment [11] is Micrococcus luteus KCTC 3063.
In experiment [12] the test system is Candida tropicalis KCTC 1925.
Experiment [13] relates to Bacillus subtilis KCTC 3068.
The subject of experiment [14] is Escherichia coli K-12 594.
Experiment [15] has as its system Staphylococcus aureus.
Experiment [16] has as its system Enterococcus sp.
In experiment [17] the test system is Saccharomyces cerevisiae KCTC 7296.
Experiment [18] concerns Trichosporon beigelii KCTC 7707.

Molecules are shown by their SMILES. In brackets after ≈: the same amount, converted by molar mass.

As for `CC[C@H](C)[C@H](NC(=O)[C@H](CCCCN)NC(=O)[C@H](CCCCN)NC(=O)[C@H](CC(C)C)NC(=O)[C@H](CCCCN)NC(=O)[C@H](CCCCN)NC(=O)CN)C(=O)NCC(=O)N[C@@H](CCC(N)=O)C(=O)N[C@@H](CCCCN)C(=O)N[C@H](C(=O)N[C@@H](CCCCN)C(=O)N[C@@H](CC(N)=O)C(=O)N[C@@H](Cc1ccccc1)C(=O)N[C@@H](Cc1ccccc1)C(=O)N[C@@H](CCC(N)=O)C(=O)N[C@@H](CCCCN)C(=O)N[C@@H](CC(C)C)C(=O)O)[C@@H](C)CC` [GKKLKKIGQKIKNFFQKL], the MIC is 3.12 µM (≈ 6.7 µg/mL) in experiment [1]; 1.56 µM (≈ 3.35 µg/mL) in [2]; 6.25 µM (≈ 13.4 µg/mL) in experiment [3]; 3.12 µM (≈ 6.7 µg/mL) in [4]; 1.56 µM (≈ 3.35 µg/mL) in [5]; 3.12 µM (≈ 6.7 µg/mL) in experiment [6]. Further, the results for the MIC in experiment [7] and in [8] were 12.5 µM (≈ 26.8 µg/mL) and 0.78 µM (≈ 1.67 µg/mL), respectively.

Turning to `CC[C@H](C)[C@H](NC(=O)[C@H](CCCCN)NC(=O)[C@H](CCCCN)NC(=O)[C@H](CC(C)C)NC(=O)[C@H](C)NC(=O)[C@H](CCCN=C(N)N)NC(=O)[C@H](CCCCN)NC(=O)CNC(=O)[C@H](CC(C)C)NC(=O)[C@H](CCCN=C(N)N)NC(=O)[C@H](CC(C)C)NC(=O)[C@H](C)NC(=O)[C@H](CC(C)C)NC(=O)CNC(=O)[C@H](CC(N)=O)NC(=O)[C@H](CC(C)C)NC(=O)[C@H](CC(C)C)NC(=O)CN)C(=O)N[C@H](C(=O)N[C@@H](CCCCN)C(=O)N[C@@H](CCCN=C(N)N)C(=O)N[C@@H](CC(C)C)C(=O)N[C@@H](CS)C(=O)N[C@@H](CCCN=C(N)N)C(=O)O)[C@@H](C)CC` [GLLNGLALRLGKRALKKIIKRLCR], the MIC came out at 18.5 µM (≈ 50 µg/mL) in [9]; 9.24 µM (≈ 25 µg/mL) in experiment [10]; 0.577 µM (≈ 1.56 µg/mL) in [11]; 1.15 µM (≈ 3.12 µg/mL) in experiment [12]; 1.15 µM (≈ 3.12 µg/mL) in experiment [13]; 1.15 µM (≈ 3.12 µg/mL) in experiment [14]. In addition, the MIC in experiment [15] and in [16] was 9.24 µM (≈ 25 µg/mL) in each case.

Regarding `CC[C@H](C)[C@H](NC(=O)[C@@H](NC(=O)[C@@H](N)CCCNC(=N)N)[C@@H](C)CC)C(=O)N[C@@H](CC(=O)O)C(=O)N[C@@H](CC(C)C)C(=O)N[C@@H](CC(C)C)C(=O)N[C@@H](Cc1c[nH]c2ccccc12)C(=O)N[C@@H](CCCNC(=N)N)C(=O)N[C@H](C(=O)N[C@@H](CCCNC(=N)N)C(=O)N[C@@H](CCCNC(=N)N)C(=O)N1CCC[C@H]1C(=O)N[C@@H](Cc1c[nH]c2ccccc12)C(=O)N[C@@H](CCCCN)C(=O)N1CCC[C@H]1C(=O)N[C@@H](CCCCN)C(=O)N[C@@H](Cc1ccccc1)C(=O)N[C@H](C(=O)N[C@H](C(=O)N[C@H](C(=O)N[C@@H](Cc1c[nH]c2ccccc12)C(=O)N[C@H](C(=O)N[C@H](C=O)CCCNC(=N)N)C(C)C)C(C)C)[C@@H](C)O)C(C)C)C(C)C` [RIIDLLWRVRRPWKPKFVTVWVR], the values for the MIC in experiment [17], in experiment [3] and in [18] were 10 µM (≈ 30 µg/mL), 14.1 µM (≈ 42.5 µg/mL) and 10 µM (≈ 30 µg/mL), respectively.

One may read the MIC as the lowest concentration found to suppress growth. A higher MIC goes with weaker potency.
